Assay results reported in patent EP4273147A1, “SUBSTITUTED SPIROLACTAMS, SALTS THEREOF AND THEIR USE AS HERBICIDALLY ACTIVE SUBSTANCES” (Bayer Aktiengesellschaft, priority 2022, dated 2023).

Legend:
[1] = system: POAAN; experiment: Herbicidal pre-emergence action (Table A7); assay type: in vivo, Poa annua; conditions: application rate 320 g/ha, visual grading after ca. 3 weeks
In short: (§1)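 Pots: sandy loam. Sowing: one mono- and one dicot weed species together per pot. Seeds covered with soil.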

[2] = system: VERPE; experiment: Herbicidal post-emergence action (Table B10); assay type: in vivo, Veronica persica; conditions: application rate 1280 g/ha
Protocol: (§2) Seeds of mono- and dicotyledonous weed plants were placed in plastic pots in sandy loam soil (doubly sown with in each case one species of mono- or dicotyledonous weed plants per pot), covered with soil and cultivated in a greenhouse under controlled growth conditions. 2 to 3 weeks after sowing, the test plants were treated at the one-leaf stage. […] After the test plants had been kept in the greenhouse under optimum growth conditions for about 3 weeks, the activity of the preparations was rated visually in comparison to untreated controls. For example, 100% activity = the plants have died, 0% activity = like control plants.

[3] = system: LOLRI; experiment: Herbicidal pre-emergence action (Table A3); assay type: in vivo, Lolium rigidum; conditions: application rate 320 g/ha, visual grading after ca. 3 weeks
In short: as §1

[4] = system: ECHCG; experiment: Herbicidal post-emergence action (Table B3); assay type: in vivo, Echinochloa crus-galli; conditions: rated visually after about 3 weeks
In short: (§3)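 Greenhouse pot assay, sandy loam soil, one weed species per pot. Application at one-leaf stage. Readout ~3 wk post-treatment: visual % activity, 100 = dead, 0 = as untreated.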

[5] = system: VERPE; experiment: Herbicidal pre-emergence action (Table A11); assay type: in vivo, Veronica persica; conditions: application rate 1280 g/ha; visual grading after ca. 3 weeks
In short: as §1

[6] = system: MATIN; experiment: Herbicidal post-emergence action (Table B6); assay type: in vivo, Matricaria inodora; conditions: application rate 1280 g/ha; rated visually after about 3 weeks
Protocol: as §2

[7] = system: STEME; experiment: Herbicidal pre-emergence action (Table A6); assay type: in vivo, Stellaria media; conditions: application rate 320 g/ha; visual grading after ca. 3 weeks
In short: as §1

[8] = system: ECHCG; experiment: Herbicidal pre-emergence action (Table A2); assay type: in vivo, Echinochloa crus-galli; conditions: visual grading after ca. 3 weeks
In short: as §1

[9] = system: ALOMY; experiment: Herbicidal pre-emergence action (Table A9); assay type: in vivo, Alopecurus myosuroides; conditions: visual grading after ca. 3 weeks
In short: as §1

[10] = system: POAAN; experiment: Herbicidal post-emergence action (Table B7); assay type: in vivo, Poa annua; conditions: application rate 1280 g/ha
In short: as §3

[11] = system: SETVI; experiment: Herbicidal pre-emergence action (Table A5); assay type: in vivo, Setaria viridis; conditions: application rate 320 g/ha; visual grading after ca. 3 weeks
In short: as §1

[12] = system: ABUTH; experiment: Herbicidal pre-emergence action (Table A1); assay type: in vivo, Abutilon theophrasti; conditions: application rate 1280 g/ha; visual grading after ca. 3 weeks vs untreated controls (100% = plants have died off, 0% = as control plants)
Text: (§4) Seeds of mono- and dicotyledonous weed plants were sown in plastic pots (double sowings with one species of mono- and one species of dicotyledonous weed plants per pot), in sandy loam, and covered with soil.

[13] = system: MATIN; experiment: Herbicidal pre-emergence action (Table A4); assay type: in vivo, Matricaria inodora; conditions: visual grading after ca. 3 weeks
In short: as §1

[14] = system: ABUTH; experiment: Herbicidal post-emergence action (Table B1); assay type: in vivo, Abutilon theophrasti; conditions: treated at one-leaf stage, rated visually after about 3 weeks vs untreated controls (100% = plants have died, 0% = like control plants)
Protocol: as §2

[15] = system: KCHSC; experiment: Herbicidal pre-emergence action (Table A10); assay type: in vivo, Kochia scoparia; conditions: application rate 1280 g/ha; visual grading after ca. 3 weeks
In short: as §1

[16] = system: DIGSA; experiment: Herbicidal pre-emergence action (Table A12); assay type: in vivo, Digitaria sanguinalis; conditions: application rate 320 g/ha; visual grading after ca. 3 weeks
In short: as §1

[17] = system: SETVI; experiment: Herbicidal post-emergence action (Table B8); assay type: in vivo, Setaria viridis; conditions: application rate 1280 g/ha
Protocol: as §2

[18] = system: AMARE; experiment: Herbicidal pre-emergence action (Table A8); assay type: in vivo, Amaranthus retroflexus; conditions: application rate 320 g/ha; visual grading after ca. 3 weeks vs untreated controls (100% = plants have died off, 0% = as control plants)
Text: as §4

[19] = system: AMARE; experiment: Herbicidal post-emergence action (Table B11); assay type: in vivo, Amaranthus retroflexus; conditions: application rate 1280 g/ha
Protocol: as §2

[20] = system: VIOTR; experiment: Herbicidal post-emergence action, section E (Table E10); assay type: in vivo, Viola tricolor; conditions: application rate 320 g/ha; assessed visually after ca. 3 weeks
Text: (§5) 2 to 3 weeks after sowing, the test plants were sprayed in the single-leaf stage.

[21] = system: DIGSA; experiment: Herbicidal pre-emergence action, section C (Table C5); assay type: in vivo, Digitaria sanguinalis; conditions: application rate 320 g/ha; visual grading after ca. 3 weeks
[22] = system: ORYZA; experiment: Post-emergence effects on crop plants (Table F3); assay type: in vivo, Oryza sativa; conditions: application rate 320 g/ha, crop plant ORYZA
Text: as §5

[23] = system: TRZAS; experiment: Post-emergence effects on crop plants (Table F2); assay type: in vivo, Triticum aestivum; conditions: application rate 320 g/ha, crop plant TRZAS
Text: as §5

[24] = system: GLXMA; experiment: Post-emergence effects on crop plants (Table F4); assay type: in vivo, Glycine max; conditions: application rate 320 g/ha, crop plant GLXMA
Text: as §5

[25] = system: ZEAMX; experiment: Post-emergence effects on crop plants (Table F1); assay type: in vivo, Zea mays; conditions: application rate 320 g/ha, crop plant ZEAMX
Text: as §5

[26] = system: TRZAS; experiment: Pre-emergence effects on crop plants (Table D2); assay type: in vivo, Triticum aestivum; conditions: crop plant; application rate 320 g/ha; visual grading after ca. 3 weeks
[27] = system: SETVI; experiment: Herbicidal pre-emergence action, section C (Table C10); assay type: in vivo, Setaria viridis; conditions: application rate 320 g/ha; visual grading after ca. 3 weeks
[28] = system: ZEAMX; experiment: Pre-emergence effects on crop plants (Table D1); assay type: in vivo, Zea mays; conditions: crop plant; application rate 320 g/ha; visual grading after ca. 3 weeks
Text: (§6) Seeds of mono- and dicotyledonous weed plants and crop plants were sown, in plastic or organic planting pots, in sandy loam and covered with soil. The compounds according to the invention, formulated in the form of wettable powders (WP) or as emulsifiable concentrates (EC), were applied to the surface of the covering soil as aqueous suspension or emulsion, with the addition of 0.5% of an additive, at an application rate of 600 1 of water/ha (converted).
(§7) Following treatment, the pots were placed in a greenhouse and kept under optimum growth conditions for the test plants.

[29] = system: BRSNW; experiment: Post-emergence effects on crop plants (Table F5); assay type: in vivo, Brassica napus; conditions: application rate 320 g/ha, crop plant BRSNW
Text: as §5

[30] = system: ORYZA; experiment: Pre-emergence effects on crop plants (Table D3); conditions: crop plant; application rate 320 g/ha; visual grading after ca. 3 weeks
[31] = system: GLXMA; experiment: Pre-emergence effects on crop plants (Table D4); assay type: in vivo, Glycine max; conditions: crop plant; application rate 320 g/ha; visual grading after ca. 3 weeks
[32] = system: BRSNW; experiment: Pre-emergence effects on crop plants (Table D5); assay type: in vivo, Brassica napus; conditions: crop plant; application rate 320 g/ha; visual grading after ca. 3 weeks
Text: as §6, §7

O=C1N(Cc2ccccc2F)CCCC12CCCN(Cc1c(F)cccc1F)C2=O (racemic) [I-031]
pre-emergence activity against POAAN [1]: 100%
post-emergence activity against VERPE [2]: 90%
pre-emergence activity against LOLRI [3]: 100%
post-emergence activity against ECHCG ([4]; application rate 320 g/ha): 90%
pre-emergence activity against VERPE [5]: 90%
post-emergence activity against MATIN [6]: 90%
pre-emergence activity against STEME [7]: 90%
pre-emergence activity against ECHCG ([8]; application rate 320 g/ha): 100%
pre-emergence activity against ALOMY ([9]; application rate 1280 g/ha): 90%
post-emergence activity against POAAN [10]: 90%
pre-emergence activity against SETVI [11]: 100%
pre-emergence activity against ABUTH [12]: 90%
pre-emergence activity against MATIN ([13]; application rate 320 g/ha): 90%
post-emergence activity against ABUTH ([14]; application rate 1280 g/ha): 90%

O=C1N(Cc2c(F)cc(F)cc2F)CCCC12CCCN(Cc1c(F)cc(F)cc1F)C2=O (racemic) [I-198, 2,8-bis[(2,4,6-trifluorophenyl)methyl]-2,8-diazaspiro[5.5]undecane-1,7-dione]
pest or weed control at 320 g/ha ([1]; Poa annua, pre-emergence, 504 h, read-out: pre-emergence activity against POAAN): 100%
pre-emergence activity against KCHSC [15]: 90%
pre-emergence activity against DIGSA [16]: 100%
post-emergence activity against SETVI [17]: 90%
pest or weed control at 320 g/ha ([3]; Lolium rigidum, pre-emergence, 504 h, read-out: pre-emergence activity against LOLRI): 100%
pre-emergence activity against AMARE [18]: 90%
pest or weed control at 1280 g/ha ([4]; Echinochloa crus-galli, post-emergence, 504 h, application rate 1280 g/ha, read-out: post-emergence activity against ECHCG): 90%
pre-emergence activity against VERPE [5]: 90%
post-emergence activity against AMARE [19]: 90%
pre-emergence activity against STEME [7]: 90%
pre-emergence activity against ECHCG ([8]; application rate 320 g/ha): 100%
pre-emergence activity against ALOMY ([9]; application rate 320 g/ha): 90%
post-emergence activity against POAAN [10]: 90%
pre-emergence activity against SETVI [11]: 100%
pre-emergence activity against MATIN ([13]; application rate 1280 g/ha): 90%

O=C1N(Cc2c(F)cccc2Cl)CCCC12CCCN(Cc1c(F)cccc1Cl)C2=O (racemic) [I-063]
pre-emergence activity against POAAN [1]: 100%
post-emergence activity against VIOTR [20]: 80%
pre-emergence activity against DIGSA [21]: 100%
post-emergence activity against ORYZA [22]: 0%
post-emergence activity against TRZAS [23]: 0%
pre-emergence activity against STEME [7]: 100%
pre-emergence activity against ECHCG ([8]; application rate 1280 g/ha): 100%
post-emergence activity against GLXMA [24]: 10%
post-emergence activity against ZEAMX [25]: 10%
pre-emergence activity against TRZAS [26]: 0%
pre-emergence activity against SETVI [11]: 100%
pre-emergence activity against SETVI [27]: 100%
pre-emergence activity against ZEAMX [28]: 0%
post-emergence activity against BRSNW [29]: 10%
pre-emergence activity against ORYZA [30]: 0%
pre-emergence activity against GLXMA [31]: 0%
pre-emergence activity against BRSNW [32]: 10%

COc1ccccc1CN1CCCC2(CCCN(Cc3ccccc3OC)C2=O)C1=O (racemic) [I-071]
pre-emergence activity against POAAN [1]: 100%
pre-emergence activity against ECHCG ([8]; application rate 1280 g/ha): 100%
post-emergence activity against ABUTH ([14]; application rate 320 g/ha): 90%
